The results in this text go back to patent publication US9205091B2, “Diazeniumdiolated compounds, pharmaceutical compositions, and method of treating cancer” (The United States of America, as represented by the …, priority 2009, dated 2015).

A short description of data set [1]: Rate of reaction with 4 mM glutathione (stability study, HPLC). In kind it is physicochemical. Particulars: for half-life upon treatment with glutathione (GSH): in comparison with that of JS-K; for t½ (min) Mean (SE): 4 mM glutathione (GSH), aqueous pH 7.4 phosphate buffered saline, 37° C. On the procedure: 490 μL of 2.25% Pluronic P123 in PBS is aliquoted into glass HPLC vials and maintained at 50° C. To this solution, 10 μL of 50 mM of compounds 6, 7, 9, and 11 in DMSO is added and maintained at 50° C. for 10 min. A glutathione stock solution (40 mM) is prepared in 0.1 M phosphate buffer pH 7.4. To 800 μL of 0.1 M phosphate buffer in a glass HPLC vial, 100 μL of glutathione stock solution and 100 μL of formulated prodrug are added. The disappearance of the compound is monitored using an Agilent 1100 series HPLC fitted with a C-18 reverse phase column (Phenomenex Luna 250×4.60 mm) operating at 300 nm and run isocratically with acetonitrile:water (75:25).

Another data set deals with SAPK/JNK and p38. Description: Tiron pre-treatment before JS-36-25, stress kinase phosphorylation. Conditions: 10 mM Tiron 1 hour, then 30 minutes 1 μM JS-36-25. The data set is classed as cell-based, human. The procedure: Immunoblotting: For protein immunoblotting the cells are harvested in lysis buffer (25 mM Hepes buffer containing 150 mM NaCl, 10 mM MgCl2, 1% Nonidet P40, 0.25% sodium deoxycholate, 10% glycerol, 2.5 mM EDTA, supplemented with Complete proteinase inhibitors cocktail (Behringer). Cell extracts are resolved by SDS-polyacrylamide gel electrophoresis (4-12% Bis-Tris gels or 3-8% Tris-acetate gels, Invitrogen Life Technologies, Carlsbad, Calif.) then immunoblotted to PVDF membrane (Invitrogen). Antibodies to phospho-ATM, Phospho-ATR, cleaved caspases 3 and 7, phospho-SAPK/JNK and SAPK/JNK, phospho-ATF2, phospho-p38 and p38, phospho-c-jun and c-jun, and PARP are purchased from Cell Signaling Technology (Danvers, Mass.). Anti-ATF3 polyclonal antibodies are from Santa Cruz Biotechnology (Santa Cruz, Calif.). […] The cells are pre-treated for 1 hour with 10 mM Tiron, followed by 30 minutes incubation with 1 μM of JS-36-25. In the Tiron-treated cells phosphorylation of both SAPK/JNK and p38 by JS-36-25 is diminished in comparison with JS-36-25-only treated cells (FIG. 3C).

The test system of another data set is H1703 cell line. The data set can be described thus: Tiron protection against JS-K toxicity. In kind it is cell-based, human.
A further data set concerns H1373. The data set can be described thus: CellTiter 96 MTT cell proliferation assay (Example 9). In kind it is cell-based, human. The procedure:
(§1) Cell lines derived from human non-small cell lung cancers are obtained from American Type Culture Collection (ATCC, Manassas, Va.), and are designated by their NCI numbers. Cells are maintained in RPMI 1640 medium (Gibco, Invitrogen, Carlsbad, Calif.), supplemented with 10% fetal calf serum (Gemini Bio-Products, Sacramento, Calif.), 100 U/mL penicillin/streptomycin, and 2 mM glutamine at 37° C. and 5% CO2.
(§2) For proliferation assays cells are seeded at 2×10^4/well in 96-well plates, allowed to adhere for 24 hrs, and then are treated with the drug or DMSO as a control for 48 hours. […] Compounds are prepared as 10 mM stock solution in dimethyl sulfoxide (Sigma, St. Louis, Mo.). Increasing drug concentrations in 10 μL of phosphate-buffered saline (PBS) are added to 100 μL of the culture medium and incubated at 37° C. for 72 h. The CellTiter 96 non-radioactive cell proliferation assay (MTT assay, Promega, Madison, Wis.), is performed according to the manufacturer's protocol. Each compound concentration is represented in six repeats, and the screening is performed as at least two independent experiments. IC50 values are calculated using Sigma Plot software (Systat Software).
Background: Tetrazolium dyes change colour on reduction, which living cells bring about.

The subject of a further data set is H1703. The description is as above. In kind it is cell-based, human. On the procedure: as §1, §2
The next data set has as its system H1944. The description is as above. In kind it is cell-based, human. On the procedure:
as §1, §2

In a further data set the test system is H2122. The description is as above. In kind it is cell-based, human. On the procedure:
as §1, §2

The next data set has as its system H441. Described as above. In kind it is cell-based, human. On the procedure: as §1, §2
The test system of data set [2] is lung adenocarcinoma cells (cell line H441). Description: Proliferation of lung adenocarcinoma cells, JS-59-4 with olaparib (FIG. 2). The data set is classed as cell-based, human. Conditions: combination with the PARP inhibitor olaparib, in comparison to JS-59-4 alone. The procedure:
FIG. 2 is a bar graph showing a synergistic effect of the administration of JS-59-4 with the PARP inhibitor olaparib in the inhibition of proliferation of lung adenocarcinoma cells (cell line H441). The white bar represents the control (i.e., no treatment). The light gray bar represents the administration of JS-59-4 alone (0.75 μM). The dark gray bar represents the administration of JS-59-4 alone (1 μM). The diagonally hatched bar represents the administration of olaparib alone (5 μM). The cross hatched bar represents the administration of olaparib alone (10 μM). The light gray diagonally gray bar represents the co-administration of JS-59-4 (0.75 μM) and olaparib (5 μM). The dark gray diagonally hatched bar represents the co-administration of JS-59-4 (1 μM) and olaparib (5 μM). The light gray cross hatched gray bar represents the co-administration of JS-59-4 (0.75 μM) and olaparib (10 μM). The dark gray cross hatched bar represents the co-administration of JS-59-4 (1 μM) and olaparib (10 μM).

In a further data set the test system is H1703 cells. The data set can be described thus: H1703 xenograft in athymic NCr-nu/nu mice, tumor weights (Example 10). In kind it is in vivo. Particulars: 8 micromols/kg i.v., three times a week for three weeks. On the procedure: H1703 cells are harvested at 80% confluence, washed with PBS, and suspended in PBS. The cells are injected at 5×10^6 s.c. into a flank of 7-week-old female athymic NCr-nu/nu mice (Charles River). […] Animals are treated three times a week for three weeks with i.v. tail vein injections of either vehicle (2.25% P-123 in PBS) or 1 or 2 (6 micromols/kg in the vehicle) or 6 (8 micromols/kg). Body weights are taken before each drug injection. Animals are sacrificed two hours after the last drug injection and the tumors are excised and weighed. There are 13-15 mice/group at termination. The non-parametric Mann-Whitney test is utilized for statistical comparisons of tumor weights.

Regarding `CCOC(=O)N1CCN(/[N+]([O-])=N/Oc2ccc(C#N)cc2[N+](=O)[O-])CC1` [JS-59-131], in [1], the “half-life upon treatment with glutathione (GSH)” value is listed as “prolonged half-life”.

In the case of `O=S(=O)(O)c1cc(O)c(O)c(S(=O)(=O)O)c1` [Tiron], the “SAPK/JNK and p38 phosphorylation by JS-36-25” value in the data set with SAPK/JNK and p38 is reported as “significantly reduces”. Moreover, the “effect on JS-K toxicity” value in the data set with H1703 cell line is given as “protective effect”.

As usually defined, the IC50 is the concentration at which inhibition is half-maximal. Read a low IC50 as higher potency. Regarding `CCOC(=O)N1CCN(/[N+]([O-])=N/Oc2cc(OC)c([N+](=O)[O-])cc2[N+](=O)[O-])CC1` [Compound 9, O^2-(2,4-dinitrophenyl-5-methoxy) 1-[(4-ethoxycarbonyl)piperazin-1-yl]diazen-1-ium-1,2-diolate], the IC50 in the data set with H1373 was 2.1 µM; in the data set on H1703, 1.57 µM; in the data set on H1944, over 10 µM; with H2122 it was 5.78 µM; in the data set on H441, 2.5 µM. In addition, in data set [1], the “t½ (min) Mean (SE)” value is 38.6 (2.8) min.

As to `CCOC(=O)N1CCN(/[N+]([O-])=N/Oc2ccc([N+](=O)[O-])cc2C#N)CC1` [JS-59-4], the “half-life upon treatment with glutathione (GSH)” value in data set [1] is on record as “prolonged half-life”. Further, the “antiproliferative activity of the combination” value in data set [2] is on record as “significantly enhanced antiproliferative activity”.

On to `CCOC(=O)N1CCCN(/[N+]([O-])=N/Oc2cc(OC)c([N+](=O)[O-])cc2[N+](=O)[O-])CC1` [Compound 11, O^2-(2,4-dinitrophenyl-5-methoxy) 1-[(4-ethoxycarbonyl)homopiperazin-1-yl]diazen-1-ium-1,2-diolate], for which the IC50 is 3.08 µM in the data set with H1373; 1.82 µM in the data set with H1703; over 10 µM in the data set with H1944; 10 µM in the data set with H2122; 3.15 µM in the data set with H441. Further, the “t½ (min) Mean (SE)” value in [1] is on record as 59.6 (4.2) min.

On to `CCOC(=O)N1CCCN(/[N+]([O-])=N/Oc2cc(C)c([N+](=O)[O-])cc2[N+](=O)[O-])CC1` [Compound 7, O^2-(2,4-dinitrophenyl-5-methyl) 1-[(4-ethoxycarbonyl)homopiperazin-1-yl]diazen-1-ium-1,2-diolate], for which the IC50 in the data set on H1373 is 3 µM; in the data set on H1703, 1.66 µM; in the data set with H1944 it was over 10 µM; in the data set with H2122 it was 10 µM; in the data set on H441, 2.02 µM. In [1], the “t½ (min) Mean (SE)” value is listed as 25.7 (1.0) min.

For `CCOC(=O)N1CCN(/[N+]([O-])=N/Oc2cc(C)c([N+](=O)[O-])cc2[N+](=O)[O-])CC1` [Compound 6, O^2-(2,4-dinitrophenyl-5-methyl) 1-[(4-ethoxycarbonyl)piperazin-1-yl]diazen-1-ium-1,2-diolate], the IC50 was 1.86 µM in the data set on H1373; 0.97 µM in the data set with H1703; over 10 µM in the data set with H1944; 7 µM in the data set with H2122; 1.61 µM in the data set on H441. For the same compound, in data set [1], the “t½ (min) Mean (SE)” value was 71.5 (4.3) min. In the data set on H1703 cells, the “H1703 tumor growth in vivo” value is “did not result in reduction”.
